Experimental findings from patent US8785430B2, “Compound that can inhibit UBC13-UEV interactions, pharmaceutical compositions and therapeutic uses” (Consejo Superior de Investigaciones Cientificas, priority 2006, dated 2014) are described below.

Each structure is given as a SMILES string.

The target of one test is T1, UBC13-UEV1 interaction (Homo sapiens, UniProt P61088).
T1 construct: expressed in transfected cells; host or cells: Saccharomyces cerevisiae strain AH109
T1 sequence (P61088 1-152): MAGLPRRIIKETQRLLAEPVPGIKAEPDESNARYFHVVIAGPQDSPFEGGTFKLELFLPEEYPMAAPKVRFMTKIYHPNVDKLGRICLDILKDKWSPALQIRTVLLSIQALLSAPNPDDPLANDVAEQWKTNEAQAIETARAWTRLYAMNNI
In words: Two-hybrid assay in yeasts for the UBC13-UEV1 interaction (β-galactosidase). The class given is cell-based. To be noted: read-out: inhibition of the interaction between UBC13 and UEV1. The source says: The interaction between UBC13 and UEV1 is detected by means of two-hybrid assays in yeast. The protein forms of UBC13 and UEV1 used in the following examples are of Homo sapiens. The UBC13 protein, also referred to as UBE2N (HUGO nomenclature) has the following identifiers: NCBI-GI: 4507793, UniProt: P61088 and [EC:6.3.2.19]. The UEV1 protein, also referred to as UBE2V1 (HUGO nomenclature), has the following identifiers: NCBI-GI: 73765546 and UniProt: {tilde under (O)}13404. In this assay, UBC13 is expressed as a fusion protein with the Gal4 DNA-binding domain (DBD-UBC13) from the plasmid pBD-UBC13, and UEV1 is expressed as a fusion protein with the Gal4 transcriptional activation domain (AD-UEV1) from the plasmid pACT2-UEV1. Both plasmids are cotransfected in the Saccharomyces cerevisiae strain AH109, being grown on plates with […] without leucine or tryptophan, selecting only the colonies expressing […] for these two amino acids, i.e., those containing the two co-transfected plasmids. […]

Test [1] has as its system S. cerevisiae Δrad6 mutants. In words: Survival of S. cerevisiae Δrad6 mutants after ultraviolet radiation or MMS. The class given is cell-based, Saccharomyces cerevisiae. To be noted: 100 μM; for rescue of the rad6 phenotype generated by treatment with MMS (survival): 0.03% MMS; for rescue of the rad6 phenotype induced by UV irradiation (survival): ultraviolet radiation. Here is the method:
To determine if compounds Ia and Ib inhibit the function of Ubc13p-Mms2p, their capacity to mimic in S. cerevisiae the DNA repair phenotypes generated by the null mutation of ubc13 was evaluated. Thus, mutant strains in RAD6 or REV3 and the parent strain thereof (control) were used in viability assays after the exposure to ultraviolet radiation or MMS. The genotypes of the strains used are the following:
2) Strain Δrad6: MAT at his3Δ1 leu2Δ0 lys2Δ0 ura3Δ0 rad6::kanMX4
Cells were inoculated in liquid cultures with YPD medium overnight at 30° C., until reaching the log phase of growth. For the treatments with ultraviolet radiation, aliquots of cells, grown in the presence or absence of 100 μM of compounds Ia or Ib were irradiated in a Stratalinker instrument (Stratagene) at the energies indicated in FIGS. 7 and 8. For the treatment with the mutagenic agent MMS, aliquots of cells grown or not in medium with 100 μM of compounds Ia or Ib were incubated, 0.03% MMS being added, with subsequent incubation for the times indicated in FIGS. 7 and 8. After either treatment, 500 cells were seeded in plates with YPD medium, counting the colonies after 2 days.

One may read the inhibition as the share of the control response that was lost under treatment. As for `NC(=O)CN(CCc1ccccn1)C(=O)CC1C(=O)N(CCc2ccc(F)cc2)CC(=O)N1CCc1ccc(F)cc1` (stereo not drawn) [Ib, 1,4-bis[2′-(4″-fluorophenyl)ethyl]-2-[N-aminocarbonylmethyl-N-(2′-(2″-pyridyl)ethyl)-carbonylmethyl]piperazine-3,6-dione], the inhibition at 100 µM at UBC13-UEV1 interaction was roughly 40%. Moreover, in test [1], the “rescue of the rad6 phenotype generated by treatment with MMS (survival)” value is given as “to a lesser extent” and the “rescue of the rad6 phenotype induced by UV irradiation (survival)” value was “clearly rescued the rad6 phenotype”.

Regarding `NC(=O)CN(CCc1ccccn1)C(=O)C1CC(=O)N(CCc2ccc(F)cc2)CC(=O)N1CCc1ccc(F)cc1` (stereo not drawn) [Ia, N-aminocarbamoylmethyl-N-(2′-(2″pyridyl)ethyl)-1,4-bis[2′-(4″-fluorophenyl)ethyl]-3,7-dioxo-[1,4]diazepane-5-carboxamide], the inhibition at 100 µM on UBC13-UEV1 interaction was roughly 60%. For the same molecule, in test [1], the “rescue of the rad6 phenotype generated by treatment with MMS (survival)” value is “to a lesser extent” and the “rescue of the rad6 phenotype induced by UV irradiation (survival)” value is “clearly rescued the rad6 phenotype”.
